Source: publication PMC6151710 (Molecules : A Journal of Synthetic Chemistry and Natural …, 2017)
Where two headings read alike, the source gives them in different places.

Key:
[1] = Phase I metabolism in human liver microsomes, metabolite quantitation by UPLC-MS/MS MRM; type: in vitro ADME
Description: (§1) Phase I Metabolism. […] Subsequently, 150 μL of NADPH solution (final concentration of 1 mM) was added to each reaction mixture. After incubation at 37 °C for 90 min in a shaking water bath, the reaction was terminated by adding 600 μL of ice-cold methanol. The contents were vortexed for 30 s and then centrifuged at 4000 rpm for 15 min. The metabolites of psoralen and isopsoralen in the supernatant were identified by UPLC-MS/MS.
(§2) Metabolite analysis by UPLC-MS/MS. The UPLC/MS/MS method was carried out using a Waters Acquity UPLC Sample Manager and a Waters Acquity UPLC Binary Solvent Manager connected to a Waters Quattro Premier XE triple-quadruple mass spectrometer equipped with a combined ESI probe and Mass Lynx 1.4 software (Waters, Milford, MA, USA). An Acquity UPLC BEH C18 column (1.7 µm, 2.1 mm × 100 mm) was used. The instrument settings were as follows: ESI+; source temperature, 120 °C; dissolution temperature, 350 °C; capillary voltage, 3.2 kV; dissolution N2, 600 L/h; cone N2, 50 L/h. Acquisition was carried out from m/z 50 Da to 1000 Da in the total ion scan mode. MS/MS spectra were acquired from m/z 50 Da to 600 Da in the daughter ion scan mode. The solvent system consisted of solvent A (0.1% CH3COOH) and solvent B (100% ACN). The flow rate was 0.2 mL/min. The gradient elution method was 5 to 80% B over 12 min, followed by 5% B from 12 to 15 min.
(§3) Quantitation analysis of psoralen and isopsoralen metabolites by UPLC-MS/MS. […] The HPLC method and electrospray ionization were performed with the same conditions as those for metabolite analysis by UPLC-MS/MS in liver microsomes, except for the cone (30 V) and collision energy (20 V).

[2] = Phase I metabolism in mice liver microsomes, metabolite quantitation by UPLC-MS/MS MRM; type: in vitro ADME
Description: as §1, §2, §3

[3] = test system: animals; parameters: method as in PMID 19640237; details: 560 mg/kg daily for 12 days; cited from earlier work
[4] = test system: patients; parameters: method as in doi:10.5021/ad.1995.7.1.51; details: 4 of 80 patients, within 3.5–20 months of commencement of PUVA 5-MOP; cited from earlier work
[5] = test system: KunMing (KM) mice; assay: Hepatotoxicity study in mice (GSH-depleted by BSO, CYP450 inhibition by ABT): ALT, hepatic GSH, histopathology; details: for ALT activity with additional ABT treatment / histopathological evaluation of liver, with ABT: 300 mg/kg oral alone or with BSO, plus ABT 100 mg/kg i.p.; for hepatic GSH level with ABT: 300 mg/kg oral plus ABT 100 mg/kg i.p.; for histopathological evaluation of liver, co-treatment with BSO: 300 mg/kg oral plus BSO 650 mg/kg i.p., 6 or 24 h
Description: Male 6-week-old KunMing (KM) mice were purchased from the Animal Institute of the Tianjin University of Traditional Chinese Medicine (Tianjin, China), and were used after a 1-week acclimatization period. The animals were housed in mice cages in a unidirectional airflow room under controlled conditions (20–24 °C, 12:12-h light:dark cycles, and free access to water). We assured that all animals received humane care according to the criteria outlined in the “Guide for the Care and Use of Laboratory Animals” prepared by the National Academy of Sciences and published by the National Institutes of Health ((NIH) publication 86–23 revised 1985).
In the hepatotoxicity study, the mice were randomly assigned to 22 groups (n = 10/group). The mice were intraperitoneally injected with BSO (650 mg/kg) in saline (0.2 mL/20 g). The intraperitoneal dosing of ABT (100 mg/kg) in saline (0.2 mL/20 g) was simultaneous with the BSO dosing. […] Food was removed 14–16 h before BSO dosing, and was supplied again 6 h after administration of the test compounds. At 6 and 24 h, blood was collected by eyeball removal, and then the liver was removed. Plasma was separated from these blood samples, and alanine aminotransferase (ALT) was determined with a commercial kit, the GPT-UV test (Nanjing jiancheng Bioengineering Institute). A piece of each liver sample was fixed in 10% formalin, embedded in paraffin wax, sectioned, and stained with hematoxylin and eosin for histopathological evaluation.
Statistical analysis. The results from the serum ALT assay were analyzed by Kruskal–Wallis non-parametric analysis of variance followed by Mann–Whitney’s U test. For the data of the GSH assay and CYP450s relative activity, comparisons between the two groups were made by independent-samples t test. SPASS 11.5 was used for these statistical analyses. Differences were considered significant when p < 0.05 or p < 0.01.

[6] = biological target: CYP3A4 (Homo sapiens, UniProt P08684); assay: IC50 shift assay (pre-incubation with/without NADPH); type: in vitro ADME; details: for IC50: HLM; for IC50 Shift (fold): IC50 (−) NADPH versus (+) NADPH pre-incubation
Description: IC50 shift assay. In the present study, an IC50 shift assay was performed using a two-step procedure. […] After pre-incubation, a 0.02 mL aliquot of the mixture was added to a mixture containing a standard CYP substrate (final concentrations at the Km) in 0.18 mL of potassium phosphate buffer to measure CYP activities. After incubation for 15 min at 37 °C, the reactions were ceased by adding four volumes of pre-cooled methanol. The supernatants were centrifuged at 14,000 rpm for 15 min and then stored at −20 °C until the LC/MS/MS analysis of metabolites.
Analysis of samples. The LC/MS/MS method was conducted as described in [59].
IC50 value calculation. The IC50 value was calculated using GraphPad Prism (version 4.0) software (GraphPad Software, San Diego, CA, USA).

[7] = test system: mice; details: oral 40 mg daily for 28 days in mice; cited from earlier work
[8] = MRM mode, parent 50 μM, HLM 1.0 mg/mL, NADPH 1 mM, 90 min
[9] = MRM mode, parent 50 μM, MLM 1.0 mg/mL, NADPH 1 mM, 90 min
[10] = 300 mg/kg oral in combination with BSO 650 mg/kg i.p., 6 h
[11] = 300 mg/kg oral in combination with BSO 650 mg/kg i.p., 24 h

CYP3A4, sequence (P08684 whole entry): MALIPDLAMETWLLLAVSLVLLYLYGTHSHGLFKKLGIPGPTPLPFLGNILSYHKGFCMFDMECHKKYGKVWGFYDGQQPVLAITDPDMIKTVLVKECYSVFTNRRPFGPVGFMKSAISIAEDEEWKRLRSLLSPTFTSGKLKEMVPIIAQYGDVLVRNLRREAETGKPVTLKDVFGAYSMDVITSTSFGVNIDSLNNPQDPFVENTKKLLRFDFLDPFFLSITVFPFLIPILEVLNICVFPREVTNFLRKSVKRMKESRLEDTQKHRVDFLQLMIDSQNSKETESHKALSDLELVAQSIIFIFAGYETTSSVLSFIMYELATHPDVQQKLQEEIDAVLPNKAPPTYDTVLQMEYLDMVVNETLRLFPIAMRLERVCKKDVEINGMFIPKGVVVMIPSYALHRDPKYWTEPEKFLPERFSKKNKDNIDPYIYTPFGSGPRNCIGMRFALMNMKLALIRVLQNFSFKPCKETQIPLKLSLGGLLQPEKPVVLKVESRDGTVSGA

6-carboxymethyl-7-hydroxyl-coumarin [M′4]
Peak Area HLM [1, 8]: 34,274 | Peak Area MLM [2, 9]: 96,828

COc1c2ccoc2cc2oc(=O)ccc12 [5-MOP, 5-Methoxypsoralen]
liver effect of high-dose treatment [3]: hepatocyte changes | patients with transient elevations of liver enzymes [4]: 5%

CCCCS(=N)(=O)CCC(N)C(=O)O [BSO, L-buthi-onine-S, R-sulfoxinine, reference compound]
plasma ALT activity after sole treatment ([5]; BSO 650 mg/kg i.p. or ABT 100 mg/kg i.p. alone, at 24 h): no significant changes | hepatic GSH level after treatment with BSO alone ([5]; BSO 650 mg/kg i.p., over 24 h): time-dependent decrease at least for 6 h, while returning to a normal level at 24 h | liver hazard (pathological section) after BSO alone ([5]; BSO 650 mg/kg i.p., over 24 h): without hazard to the liver

O=c1ccc2ccc3occc3c2o1 [Isopsoralen]
IC50 ([6]; IC50 (+) NADPH, 30 min pre-incubation with NADPH): 9.59 ± 1.04 µM | IC50 Shift (fold) [6]: 10.1 fold | IC50 Shift (fold) ([6]; listed as isopsoralen): > 3 fold | IC50 ([6]; IC50 (−) NADPH, 30 min pre-incubation without NADPH): 96.8 ± 2.21 µM | ALT activity with additional ABT treatment [5]: completely suppressed the elevation of ALT activity | histopathological evaluation of liver, with ABT [5]: completely relieved the granular degeneration and vacuolation | plasma ALT activity [5, 10]: 30.08 IU/L | plasma ALT activity [5, 11]: 68.99 IU/L | hepatic GSH level with ABT ([5]; at 24 h): ABT prevented the decrease | histopathological evaluation of liver, co-treatment with BSO [5]: did not aggravate the histopathology | histopathological evaluation of liver ([5]; 300 mg/kg oral, alone, 6 h): weak granular degeneration | plasma ALT activity ([5]; 300 mg/kg oral, alone, 6 h): 22.73 IU/L | histopathological evaluation of liver ([5]; 300 mg/kg oral, alone, 24 h): diffuse vacuolation | plasma ALT activity ([5]; 300 mg/kg oral, alone, 24 h): 43.20 IU/L | hepatic GSH level ([5]; 300 mg/kg oral, alone, at 24 h): 9.94 ± 8.57 µM/g protein | liver injury findings [7]: elevated serum ALT, AST, and/or ALP levels

O=c1ccc2c(O)c3ccoc3cc2o1 [M1]
Peak Area HLM [1, 8]: 557 | Peak Area MLM [2, 9]: 1019

O=c1ccc2cc3ccoc3c(O)c2o1 [M2]
Peak Area HLM ([1]; human, microsomes, 1.5 h, 50 μM, pH 7.4): 502 | Peak Area MLM ([2]; mouse, microsomes, 1.5 h, 50 μM, pH 7.4): 8655

O=c1ccc2c(O)c3ccoc3c(O)c2o1 [M3]
Peak Area HLM [1, 8]: 529 | Peak Area MLM [2, 9]: 164

O=C(O)Cc1cc2ccc(=O)oc2cc1O [M4, 6-carboxymethyl-7-hydroxyl-coumarin]
Peak Area HLM [1, 8]: 66,831 | Peak Area MLM [2, 9]: 98,864

O=c1ccc2cc3c(cc2o1)OC(O)C3O (stereo not drawn) [M5]
Peak Area HLM [1, 8]: 61,016 | Peak Area MLM [2, 9]: 102,180

O=c1ccc2cc(O)c3occc3c2o1 [M′1]
Peak Area HLM [1, 8]: 1288 | Peak Area MLM [2, 9]: 14,513

O=c1ccc2c(O)cc3occc3c2o1 [M′2]
Peak Area HLM [1, 8]: 1349 | Peak Area MLM [2, 9]: 4707

O=C(O)/C=C\c1ccc2occc2c1O [M′3]
Peak Area HLM [1, 8]: 312 | Peak Area MLM [2, 9]: 418

O=c1ccc2ccc3c(c2o1)C(O)C(O)O3 (stereo not drawn) [M′5]
Peak Area HLM [1, 8]: 1627 | Peak Area MLM [2, 9]: 7725

O=c1ccc2cc3ccoc3cc2o1 [Psoralen]
IC50 ([6]; 30 min pre-incubation with NADPH, read-out: IC50 (+) NADPH): 19.5 ± 1.04 µM | IC50 ([6]; 30 min pre-incubation without NADPH, read-out: IC50 (−) NADPH): > 200 µM | ALT activity with additional ABT treatment [5]: completely suppressed the elevation of ALT activity | histopathological evaluation of liver, with ABT [5]: completely relieved the granular degeneration and vacuolation | plasma ALT activity [5, 10]: 59.90 IU/L | plasma ALT activity [5, 11]: 326.07 IU/L | hepatic GSH level with ABT ([5]; at 24 h): ABT prevented the decrease | histopathological evaluation of liver, co-treatment with BSO [5]: did not aggravate the histopathology | histopathological evaluation of liver ([5]; 300 mg/kg oral, alone, 6 h): diffuse granular degeneration | plasma ALT activity ([5]; 300 mg/kg oral, alone, 6 h): 42.17 IU/L | histopathological evaluation of liver ([5]; 300 mg/kg oral, alone, 24 h): diffuse vacuolation | plasma ALT activity ([5]; 300 mg/kg oral, alone, 24 h): 128.42 IU/L | hepatic GSH level ([5]; 300 mg/kg oral, alone, at 24 h): 11.26 ± 3.67 µM/g protein
